Data set [1] relates to SKOV3ip1. Kind of data set: Tumor microvessel density (CD31) in orthotopic SKOV3ip1 tumors. Conditions: CD31 staining. Format: in vivo, mice. The procedure: (§1) Analysis of tumor microvessel density (CD31) and proliferation (PCNA). Microvessel density analysis was performed by immunostaining for CD31 antigen in orthotopic tumors as previously described (Halder et al., 2006). Briefly, frozen slides were rehydrated in acetone, blocked for endogenous peroxidases with H2O2 in methanol, and incubated overnight at 4° C. with rat anti-mouse m-CD31 antibodies (1:800; BD Bioscience, Pharmingen, San Jose, Calif.). The following day, slides were incubated with appropriate secondary antibody and detected with DAB substrate. Proliferation was assessed by staining for PCNA on paraffin slides as previously reported (Halder et al., 2006). After deparaffinization and rehydration, slides were heated in microwave at 98° C. for 10 min in 0.1M citrate buffer (pH 6.0) for antigen retrieval, blocked for endogenous peroxidases, and then incubated with fragment blocker (1:10; Jackson Immunoresearch Lab., West Grove, Pa.) overnight at 4° C. to reduce murine antigen interference. Following day, slides were incubated with primary antibody (1:50; anti-PCNA, PC-10, mouse IgG, Dako, Carpinteria, Calif.) for 4 hours at RT, washed with PBS, and re-incubated for 1 hour at RT with appropriate secondary. Detection was performed with DAB substrate. Quantification of MVD and proliferation was performed as previously described (Halder et al., 2006).

The test system of data set [2] is HeyA8. The data set can be described thus: IL-8 siRNA therapy in orthotopic murine ovarian cancer model, HeyA8. It is filed as in vivo, mice. The text has this:
(§2) Cell lines and cultures. The derivation and source of the epithelial ovarian cancer cell lines HeyA8 and SKOV3ip1 have been previously described (Halder et al., 2006; Landen et al., 2005). The taxane-resistant cell line, SKOV3ip2.TR (a gift from Dr. Isaiah J. Fidler, M.D. Anderson Cancer Center [MDACC], Houston, Tex.), was derived from the SKOV3ip1 cells following serial passages in media containing paclitaxel. All cell lines were maintained and propagated in RPMI-1640 media supplemented with 15% fetal bovine serum and 0.1% gentamicin sulfate (Gemini Bioproducts, Calabasas, Calif.). SKOV3ip2.TR media also contained 100-150 ng/ml paclitaxel. All experiments were performed at 60-80% confluency and cell lines routinely tested for Mycoplasma. For in vivo experiments, cells were trypsinized, centrifuged at 1000 rpm at 4° C. for 7 minutes, washed twice with HBSS, and resuspended at a concentration of 1.25×10^6 cells/ml (HeyA8) and 5×10^6 cells/ml (SKOV3ip1 and SKOV3ip2.TR).
(§3) Preparation of liposomal siRNA for in vivo delivery. For all in vivo experiments, siRNA constructs were incorporated into neutral liposomes (DOPC: 1,2-dioleoyl-sn-glycero-3-phosphatidylcholine), lyophilized, and stored at −20° C. (Landen et al., 2005). Prior to in vivo delivery, siRNA-DOPC preparations were resuspended with PBS to appropriate concentrations.
(§4) IL-8 siRNA therapy in an orthotopic murine ovarian cancer model. Female athymic nude mice were purchased from the National Cancer Institute-Frederick Cancer Research and Development Center (Frederick, Md.) and housed in specific pathogen-free conditions. […]
(§5) Development and characterization of the orthotopic murine model of advanced ovarian cancer used in these experiments has been previously described (Halder et al., 2006; Landen et al., 2005). […] Mice were monitored daily for signs of adverse effects and sacrificed when moribund. Tumor weights, number of tumor nodules, pattern of disease spread, presence and amount of ascites, and mouse weights were recorded at necropsy. […]

The test system of data set [3] is HeyA8. The data set can be described thus: Tumor microvessel density (CD31) in orthotopic HeyA8 tumors. The conditions noted are these: CD31 staining. Format: in vivo, mice. As for the experimental part:
as §1

Data set [4] deals with HeyA8. The data set can be described thus: Tumor cell proliferation (PCNA) in orthotopic HeyA8 tumors. Format: in vivo, mice. Conditions: compared to controls. As for the experimental part:
as §1

Data set [5] concerns SKOV3ip1. The data set can be described thus: Tumor cell proliferation (PCNA) in orthotopic SKOV3ip1 tumors. Format: in vivo, mice. Conditions: compared to controls. As for the experimental part:
as §1

Data set [6] concerns SKOV3ip1. Kind of data set: IL-8 siRNA therapy in orthotopic murine ovarian cancer model, SKOV3ip1. It is filed as in vivo, mice.
Text: as §2, §3, §4, §5

In a further data set the test system is SKOV3ip2.TR. The data set can be described thus: IL-8 siRNA therapy in orthotopic murine ovarian cancer model, taxane-resistant SKOV3ip2.TR. It is filed as in vivo, mice.
Text: as §2, §3, §4, §5

The test system of the next data set is MMP2. The data set can be described thus: MMP2 expression after IL-8 siRNA transfection in vitro. It is filed as cell-based, human. The conditions noted are these: HeyA8 and SKOV3ip1 cell lines; following siRNA transfection in vitro.
The subject of the next data set is IL-8 mRNA. The data set can be described thus: IL-8 mRNA expression by RT-PCR after in vitro siRNA transfection. It is filed as cell-based, human. The conditions noted are these: RT-PCR 36-48 hours after siRNA transfection, compared to control siRNA.
Text: as §2
SiRNA and in vitro transfections. […]
mRNA and protein IL-8 expression analysis for in vitro transfections. The expression of IL-8 in vitro was determined with RT-PCR and ELISA 36-48 hours after siRNA transfection. […] For ELISA, cells were treated with serum-free media day prior to analysis and IL-8 protein levels were quantified using a commercially available ELISA kit (R&D Systems, Minneapolis, Minn.). […]

For a further data set, the system named is MMP9. The data set can be described thus: MMP9 expression after IL-8 siRNA transfection in vitro. It is filed as cell-based, human. Conditions: HeyA8 and SKOV3ip1 cell lines; following siRNA transfection in vitro.
The next data set deals with IL-8. Kind of data set: Secreted IL-8 protein by ELISA after in vitro siRNA transfection. It is filed as cell-based, human. The conditions noted are these: for IL-8 protein levels reduced by: ELISA 36-48 hours after siRNA transfection.
Text: as §2
SiRNA and in vitro transfections. IL-8 targeting siRNA purchased from Dharmacon (Lafayette, Colo.) was used to silence IL-8 expression in ovarian cancer cell lines (target sequence: GCCAAGGAGUGCUAAAGAA—SEQ ID NO:1). The sequence of the sense strand of the IL-8 siRNA is […] (SEQ ID NO:39) and the sequence of the antisense strand of the IL-8 siRNA is […] (SEQ ID NO:40). […] For in vitro transfections, 2×10^5 cells/well were plated into 6-well plates. The following day, cells were washed with PBS and incubated with 5 μg siRNA (IL-8 or control) with 30 μl of RNAiFect transfection reagent (Qiagen, Valencia, Calif.) in serum-containing media overnight at 37° C. Media was changed 24 hours after transfection and replaced with appropriate media.
mRNA and protein IL-8 expression analysis for in vitro transfections. The expression of IL-8 in vitro was determined with RT-PCR and ELISA 36-48 hours after siRNA transfection. For RT-PCR analysis, RNA was isolated according to manufacturer's protocol (Ambion RNAqueous Kit, Ambion, Austin, Tex.), transcribed into cDNA, and amplified: 94° C.×2 min, 94° C.×30 sec, 61° C.×30 sec, 72° C. 2 min, repeated for 21 cycles, and 72° C.×7 min (Primers: IL-8 sense […] (SEQ ID NO:48); IL-8 anti-sense […] (SEQ ID NO:49); GAPDH sense GAGCCACATCGCTCAGAC (SEQ ID NO:50); GAPDH anti-sense CTTCTCATGGTTCACACCC (SEQ ID NO:51)). For ELISA, cells were treated with serum-free media day prior to analysis and IL-8 protein levels were quantified using a commercially available ELISA kit (R&D Systems, Minneapolis, Minn.). All experiments were performed in duplicate and control siRNA was used for comparison.
For orientation: An ELISA detects its analyte on a solid surface through an enzyme-linked reagent.

In the next data set the test system is HeyA8 cell line. Kind of data set: Tumor cell invasion in vitro. Format: cell-based, human.
Setting [7] is: HeyA8 cells, media collected at various time points.

Values joined by “and” are separate entries in the source; they are usually repeats but may differ in a detail not shown here. Equal entries are not always repeated. “Also recorded” adds a separate entry of the source. Some results are limits rather than exact numbers.

Consider `CC(=O)O[C@@]12CO[C@@H]1C[C@H](O)[C@@]1(C)C(=O)[C@H](O)C3=C(C)[C@@H](OC(=O)[C@H](O)[C@@H](NC(=O)OC(C)(C)C)c4ccccc4)C[C@@](O)([C@@H](OC(=O)c4ccccc4)[C@H]21)C3(C)C` [docetaxel], for which the “effect on MVD / tumor angiogenesis (in words)” value in the data set with SKOV3ip1 [1] and in the data set with HeyA8 [3] was “Minimal effects” each time. Moreover, the “tumor burden, average number of tumor nodules (in words)” value in the data set on HeyA8 [2] (compared to controls) and with SKOV3ip1 [6] (compared to controls) was “reduced tumor burden” each time. The “tumor cell proliferation, PCNA staining (in words)” value in the data set on HeyA8 [4] and with SKOV3ip1 [5] was “effective in reducing proliferation; also recorded: decreased tumor cell proliferation” each time. Besides, the “tumor growth reduction (tumor weight)” value in the data set with SKOV3ip2.TR (SKOV3ip2.TR taxane-resistant, compared to controls, docetaxel 35 μg) amounted to 11%.

Turning to “IL-8 siRNA: IL-8 targeting siRNA from Dharmacon; sense GCCAAGGAGUGCUAAAGAAUU (SEQ ID NO:39), antisense UUCUUUAGCACUCCUUGGCUU (SEQ ID NO:40) (incorporated into neutral DOPC liposomes, further chemistry not given here)”, in the data set with MMP2, the MMP2 expression entry was “decreased”. Further, the “No. nodules (mean ± SE)” value with HeyA8 [2] turned out to be 3.4 ± 0.8; with SKOV3ip1 [6] it was 21.0 ± 7.3; with SKOV3ip2.TR (SKOV3ip2.TR), 21.9 ± 3.4. For the same compound, the figures for the “Tumor incidence (%)” value with HeyA8 [2], with SKOV3ip1 [6] and in the data set on SKOV3ip2.TR (SKOV3ip2.TR) were 100%, 70% and 90%, respectively. Also, the “IL-8 mRNA expression” value with IL-8 mRNA (HeyA8) and in the data set on IL-8 mRNA (SKOV3ip1) was “significantly reduced; also recorded: significantly decreased” each time. The MMP9 expression entry in the data set with MMP9 is given as “decreased”. The “IL-8 protein levels reduced by” value in the data set on IL-8 (HeyA8) is 79% and 80%; in the data set on IL-8 (SKOV3ip1) it was 81% and 80%. Further, the “IL-8 returning to baseline, time after transfection” value in the data set with IL-8 (setting [7]) was at most 96 h. The “Maximum down regulation of IL-8, time after transfection” value in the data set on IL-8 (setting [7]) was determined as 48 h. Also, the “tumor cell invasion in vitro” value in the data set on HeyA8 cell line is on record as “decreased tumor cell invasion”.

Values taken from patent US8067390B2, “Therapeutic targeting of interleukins using siRNA in neutral liposomes” (The Board of Regents of the University of Texas System, priority 2007, dated 2011).
